Entries after “also recorded” stand apart in the source; their conditions may differ. Where a name gives a salt, the structure may show the parent alone.
Legend:
[1] = Toxicity, gastric administration, mice; settings: mouse, in vivo, po
[2] = Toxicity, intraperitoneal administration, mice; format: in vivo; settings: mouse, in vivo, ip, intraperitoneal administration
mice [3] = assay: Toxicity, intraperitoneal administration, mice; format: in vivo; settings: i.p., 256 mg/kg, 512 mg/kg and 1,024 mg/kg
[4] = system: stereotype behaviour caused by apomorphine; assay: Interaction with apomorphine; format: in vivo, rats
Experimental: Batches of 6 rats are given CRL 40,028 30 minutes after the subcutaneous injection of 0.5 mg/kg of apomorphine.

spontaneous motility = assay: Spontaneous motility (actimetry); format: in vivo, mice; settings: for % relative to the control animals / % variation: rays crossed
Experimental: CRL 40,028 increases the motor activity of the animals from a dose of 16 mg/kg onwards. As this effect is representative of the activity of CRL 40,028, attempts have been made to obtain its kinetics more precisely. […]

residual motility = assay: Residual motility; format: in vivo, mice; settings: animals becoming accustomed to the chamber
[5] = system: motor activity after anoxia; assay: Motor recovery after hypoxia aggression; format: in vivo, mice
[6] = system: stereotype behaviour induced by amphetamine; assay: Interaction with amphetamine; format: in vivo, rats
Experimental: Amphetamine (2 mg/kg, given intraperitoneally) is injected 30 minutes after the administration of CRL 40,028 (6 rats/dose).

[7] = system: hypothermia and ptosis produced by reserpine; assay: Interaction with reserpine; format: in vivo, mice
Experimental: Batches of 6 mice are given an intraperitoneal injection of reserpine (2.5 mg/kg) 4 hours before the administration of CRL 40,028.

[8] = system: hypothermia, trembling and peripheral cholinergic symptoms brought about by oxotremorine; assay: Interaction with oxotremorine; format: in vivo, mice
Experimental: Mice (6 per dose) are given an intraperitoneal injection of 0.5 mg/kg of oxotremorine 30 minutes after the administration of CRL 40,028.

passes which entail pain = assay: Four plate test; format: in vivo, mice; settings: mice
Experimental: (§1) The test is carried out on batches of 20 mice, 30 minutes after the administration of CRL 40,028.

[9] = system: convulsive effects of the electric shock; assay: Electric shock; format: in vivo, mice
Experimental: as §1

[10] = General behaviour / psychopharmacological spectrum (species not stated); format: in vivo
mice [11] = assay: General behaviour, mice; format: in vivo; settings: at all the doses studied (toxicity test)
central nervous system = assay: Pharmacological tests: action on the central nervous system, overall profile; format: in vivo
Experimental: The results of the pharmacological tests which were carried out have been summarised below.

groups of mice = assay: Group toxicity; settings: in words, comparison with amphetamine-type compounds
carrageenin oedema = assay: Carrageenin oedema; format: in vivo

## O=C(C[S+]([O-])C(c1ccccc1)c1ccccc1)NO (stereo not shown) [CRL 40,028, benzhydrylsulphinylacetohydroxamic acid]
[1]
  LD50: 1950 mg/kg
[2]
  LD50: ≤ 2050 mg/kg
Mice [3]
  mortality: no mortality was observed
[4]; Table IV, graded symbols
  Boosting action on apomorphine: 0
[4]; in words, comparison with amphetamine / caffeine
  boosting of the effect of apomorphine: absence of boosting of the effect of apomorphine
[4]; rats, apomorphine 0.5 mg/kg s.c.
  activity on the stereotype behaviour caused by apomorphine: does not exert any activity
Spontaneous motility; Mus musculus, spontaneous motility, read-out: dose from which motor activity is increased
  minimal effective dose: ≥ 16 mg/kg
Spontaneous motility; mice, 64 mg/kg
  time in which hypermotility appears: less than 30 minutes
  time in which hypermotility disappears: 4 h
  time of maximum hypermotility: one
Spontaneous motility; mice, 64 mg/kg, - 30 mins
  Number of rays crossed in 30 minutes: 311
  % relative to the control animals: 155%
  % variation: +55%
Spontaneous motility; mice, 64 mg/kg, - 1 hr
  Number of rays crossed in 30 minutes: 424
  % relative to the control animals: 212%
  % variation: +112%
Spontaneous motility; mice, 64 mg/kg, - 2 hrs
  Number of rays crossed in 30 minutes: 376
  % relative to the control animals: 188%
  % variation: +88%
Spontaneous motility; mice, 64 mg/kg, - 4 hrs
  Number of rays crossed in 30 minutes: 234
  % relative to the control animals: 117%
  % variation: +17%
Residual motility
  effect on residual motility: stimulating effect
[5]; comparison with caffeine
  aggravation of the effects of hypoxia: absence of an aggravation
[5]; mice, 512, 128 and 32 mg/kg, vs control animals
  motor activity after anoxia: markedly greater motor activity than that of the control animals
[6]; Table IV, graded symbols
  Boosting action on amphetamine: 0
[6]; in words
  boosting of the effect of amphetamine: does not boost the action of amphetamine; also recorded: absence of boosting
[6]; rats, amphetamine 2 mg/kg i.p.
  effect on stereotype behaviour induced by amphetamine: does not produce an overall change in the stereotype behaviour induced by amphetamine
[7]; Table IV, graded symbols
  Anti-reserpine action (ptosis): 0
[7]; in words
  anti-reserpine effect: absence of a marked antagonism to reserpine
  hypothermia due to reserpine: absence of a marked antagonism to hypothermia brought about by reserpine
[7]; mice, 256 and 64 mg/kg, reserpine 2.5 mg/kg i.p.
  effect on hypothermic effect of reserpine: partially counteracts the hypothermic effect of reserpine
[7]; mice, reserpine 2.5 mg/kg i.p.
  effect on ptosis produced by reserpine: does not resolve the palpebral ptosis
[8]; Table IV, graded symbols
  Anti-oxotremorine action (peripheral): 0
[8]; mice, 64 mg/kg
  effect on hypothermic effect of oxotremorine: not
[8]; mice, 256, 16 and 4 mg/kg
  effect on hypothermic effect of oxotremorine: moderately opposes the hypothermic effect of oxotremorine
[8]; mice, at all the doses
  effect on trembling brought about by oxotremorine: moderately reduces
[8]; mice, oxotremorine 0.5 mg/kg i.p.
  effect on peripheral cholinergic symptoms (salivation, lachrymation, defaecation): does not alter the increase in salivation, lachrymation and defaecation
Passes which entail pain; 4.1 mg/kg
  number of passes which entail pain: a modest decrease in the number of such passes
Passes which entail pain; 256 and 64 mg/kg
  number of passes which entail pain: an increase in the number of passes which entail pain
Passes which entail pain; at no dose
  decrease in motility: At no dose does CRL 40,028 bring about a major decrease in motility
[9]; comparison with caffeine
  aggravation of the effects of electric shock: absence of an aggravation
[9]; mice, only at 256 mg/kg
  antagonism against convulsive effects of the electric shock: a very moderate antagonism
[10]; Table IV, graded symbols
  stereotypies: 0
[10]; animal psychopharmacology
  stimulant properties (overall): stimulant properties, namely causing excitation and hyper-reactivity, and hypermotility
[10]; in words, comparison with amphetamine-type compounds
  stereotypies: absence of stereotypies
Mice [11]
  excitation of the animal: excitation of the animal was observed
Central nervous system; comparison with amphetamine and caffeine
  psychostimulant profile: a psychostimulant which comes closer to caffeine
Groups of mice
  toxicity in the groups of mice: virtual absence of specific (?) toxicity
Solubility in water
  solubility: < 1000 µg/mL

## [O-][S+](CCC1=NCCN1)C(c1ccccc1)c1ccccc1 (stereo not shown) [CRL 40,066, 2-(2-Benzhydrylsulphinyl-ether)-imidazoline hydrochloride]
Carrageenin oedema
  anti-oedema effect: an anti-oedema effect
Central nervous system; in words
  action on the central nervous system: an effect on the central nervous system
